# Target: T1, Recombinant human cathepsin A (Homo sapiens, UniProt P10619)
# T1 construct: Recombinant human cathepsin A (residues 29-480, with a C-terminal 10-His tag); 10-His (C); purchased R&D Systems 1049-SE
# T1 sequence (P10619 29-312 limits assumed): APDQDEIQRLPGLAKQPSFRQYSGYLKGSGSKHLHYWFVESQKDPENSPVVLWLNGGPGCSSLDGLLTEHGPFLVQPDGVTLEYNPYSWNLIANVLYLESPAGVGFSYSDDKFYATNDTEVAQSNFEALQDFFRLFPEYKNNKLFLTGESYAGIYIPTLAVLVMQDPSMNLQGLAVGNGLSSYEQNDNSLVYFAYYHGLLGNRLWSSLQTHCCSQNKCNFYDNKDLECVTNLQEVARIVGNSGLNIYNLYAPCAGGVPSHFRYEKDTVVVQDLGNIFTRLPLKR
# T1 sequence (P10619 327-480 limits assumed): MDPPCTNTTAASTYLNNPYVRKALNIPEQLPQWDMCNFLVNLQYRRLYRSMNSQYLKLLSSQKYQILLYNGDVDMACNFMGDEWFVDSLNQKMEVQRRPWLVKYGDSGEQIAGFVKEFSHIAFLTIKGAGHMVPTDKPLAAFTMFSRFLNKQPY
# Experiment: Cathepsin A inhibitory activity
# Format: biochemical
# Settings: read-out: Activity (2): Cathepsin A inhibitory activity, IC50 class
# Outline: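 Read-out was microfluidic separation of cleaved vs. uncleaved Bodipy FL-bradykinin (2 μM), giving turnover, % inhibition and IC50. Compound and 833 ng/ml enzyme met for 15 min RT in pH 5.5 MES/DTT before substrate (15 min RT). The 29-480 His-tagged human enzyme was first activated by cathepsin L, then E-64 (10 μM).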
row,SMILES,IC50 [nM]
1,O=C(O)C[C@H](NC(=O)c1cc(O)n(-c2ccc(Cl)cc2)n1)c1ccc(Cl)cc1Cl [Example 297],100 to 1000
2,O=C(O)C[C@H](NC(=O)c1cc(O)n(-c2ccc(Cl)cc2)n1)c1cccnc1 [Example 298],1000 to 30000
3,COc1ccc([C@H](CC(=O)O)NC(=O)c2cc(O)n(-c3ccc(Cl)cc3)n2)cn1 [Example 299],1000 to 30000
4,O=C(O)CC(NC(=O)c1cc(O)n(-c2cccc(F)c2)n1)c1cccc2c1OCO2 (centres unmarked) [Example 300],100 to 1000
5,O=C(O)CC(NC(=O)c1cc(O)n(-c2cccc(F)c2)n1)c1cccc(Cl)c1 (centres unmarked) [Example 301],100 to 1000
6,O=C(O)C[C@H](NC(=O)c1cc(O)n(-c2cccc(F)c2)n1)c1ccccc1Br [Example 302],100 to 1000
7,N#Cc1cccc([C@H](CC(=O)O)NC(=O)c2cc(O)n(-c3cccc(F)c3)n2)c1 [Example 303],1000 to 30000
8,O=C(O)CC(NC(=O)c1cc(O)n(-c2cccc(F)c2)n1)c1cccc(C(F)(F)F)c1 (centres unmarked) [Example 304],100 to 1000
9,N#Cc1ccc([C@H](CC(=O)O)NC(=O)c2cc(O)n(-c3cccc(F)c3)n2)cc1 [Example 305],100 to 1000
10,COc1ccc(C(CC(=O)O)NC(=O)c2cc(O)n(-c3cccc(F)c3)n2)c(OC)c1 (centres unmarked) [Example 306],100 to 1000
11,COc1ccccc1[C@H](CC(=O)O)NC(=O)c1cc(O)n(-c2cccc(F)c2)n1 [Example 307],100 to 1000
12,O=C(O)CC(NC(=O)c1cc(O)n(-c2cccc(F)c2)n1)c1ccccc1F (centres unmarked) [Example 308],100 to 1000
13,COc1ccc(Cl)cc1C(CC(=O)O)NC(=O)c1cc(O)n(-c2cccc(F)c2)n1 (centres unmarked) [Example 309],100 to 1000
14,COc1ccc(C(CC(=O)O)NC(=O)c2cc(O)n(-c3cccc(F)c3)n2)c(Cl)c1 (centres unmarked) [Example 310],100 to 1000
15,O=C(O)C[C@H](NC(=O)c1cc(O)n(-c2cccc(F)c2)n1)c1ccc(F)cc1 [Example 311],100 to 1000
16,O=C(O)C[C@H](NC(=O)c1cc(O)n(-c2cccc(F)c2)n1)c1cccc(F)c1 [Example 312],100 to 1000
17,O=C(O)C[C@H](NC(=O)c1cc(O)n(-c2cccc(F)c2)n1)c1ccc(C(F)(F)F)cc1 [Example 313],1000 to 30000
18,O=C(O)CC(NC(=O)c1cc(O)n(-c2cccc(F)c2)n1)c1cccc(Cl)c1Cl (centres unmarked) [Example 314],< 100
19,O=C(O)CC(NC(=O)c1cc(O)n(-c2cccc(F)c2)n1)c1ccc(OC(F)(F)F)cc1 (centres unmarked) [Example 315],100 to 1000
20,COc1ccccc1[C@@H](NC(=O)c1cc(O)n(-c2cccc(F)c2)n1)[C@@H](O)C(=O)O [Example 316],1000 to 30000
21,Cc1cccc([C@H](CC(=O)O)NC(=O)c2cc(O)n(-c3cccc(F)c3)n2)c1 [Example 317],100 to 1000
22,O=C(O)C[C@H](NC(=O)c1cc(O)n(-c2cccc(F)c2)n1)c1cccc(C(F)(F)F)c1 [Example 318],100 to 1000
23,O=C(O)CC(NC(=O)c1cc(O)n(-c2cccc(F)c2)n1)c1ccc(-c2cccc(F)c2)cc1 (centres unmarked) [Example 319],100 to 1000
24,O=C(O)CC(NC(=O)c1cc(O)n(-c2cccc(F)c2)n1)c1ccc(Cl)cc1F (centres unmarked) [Example 320],100 to 1000

row,SMILES,IC50 [nM]
1,Cc1ccc(C)c(C(CC(=O)O)NC(=O)c2cc(O)n(-c3cccc(F)c3)n2)c1 (centres unmarked) [Example 321],100 to 1000
2,O=C(O)CC(NC(=O)c1cc(O)n(-c2cccc(F)c2)n1)c1cccc(Cl)c1F (centres unmarked) [Example 322],100 to 1000
3,O=C(O)CC(NC(=O)c1cc(O)n(-c2cccc(F)c2)n1)c1cccc(C(F)(F)F)c1Cl (centres unmarked) [Example 323],100 to 1000
4,CCc1ccc(C(CC(=O)O)NC(=O)c2cc(O)n(-c3cccc(F)c3)n2)cc1 (centres unmarked) [Example 324],100 to 1000
5,Cc1ccc(C(CC(=O)O)NC(=O)c2cc(O)n(-c3cccc(F)c3)n2)c(C)c1 (centres unmarked) [Example 325],100 to 1000
6,Cc1cc(F)ccc1C(CC(=O)O)NC(=O)c1cc(O)n(-c2cccc(F)c2)n1 (centres unmarked) [Example 326],100 to 1000
7,O=C(O)CC(NC(=O)c1cc(O)n(-c2cccc(F)c2)n1)c1ccc(-c2ccccc2)cc1 (centres unmarked) [Example 327],100 to 1000
8,O=C(O)CC(NC(=O)c1cc(O)n(-c2cccc(F)c2)n1)c1ccc(Cl)c(Cl)c1 (centres unmarked) [Example 328],100 to 1000
9,O=C(O)C[C@H](NC(=O)c1cc(O)n(-c2cccc(F)c2)n1)c1ccccc1C(F)(F)F [Example 329],100 to 1000
10,O=C(O)CC(NC(=O)c1cc(O)n(-c2cccc(F)c2)n1)c1ccc(Oc2ccccc2)cc1 (centres unmarked) [Example 330],100 to 1000
11,O=C(O)C[C@H](NC(=O)c1cc(O)n(-c2cccc(F)c2)n1)c1ccc(Cl)cc1 [Example 331],100 to 1000
12,O=C(O)C[C@H](NC(=O)c1cc(O)n(-c2cccc(F)c2)n1)c1ccc(Cl)cc1Cl [Example 332],100 to 1000
13,O=C(O)CC(NC(=O)c1cc(O)n(-c2cccc(F)c2)n1)c1ccc(-c2ccc(F)cc2)cc1 (centres unmarked) [Example 333],1000 to 30000
14,O=C(O)C[C@H](NC(=O)c1cc(O)n(-c2cccc(F)c2)n1)c1cccnc1 [Example 334],100 to 1000
15,COc1ccc([C@H](CC(=O)O)NC(=O)c2cc(O)n(-c3cccc(F)c3)n2)cn1 [Example 335],100 to 1000
16,O=C(O)CC(NC(=O)c1cc(O)n(-c2ccc(F)cc2)n1)c1cccc2c1OCO2 (centres unmarked) [Example 336],100 to 1000
17,COc1ccc(C(CC(=O)O)NC(=O)c2cc(O)n(-c3ccc(F)cc3)n2)c(C)c1 (centres unmarked) [Example 337],100 to 1000
18,O=C(O)CC(NC(=O)c1cc(O)n(-c2ccc(F)cc2)n1)c1cccc(Cl)c1 (centres unmarked) [Example 338],100 to 1000
19,O=C(O)C[C@H](NC(=O)c1cc(O)n(-c2ccc(F)cc2)n1)c1ccccc1Br [Example 339],100 to 1000
20,N#Cc1cccc([C@H](CC(=O)O)NC(=O)c2cc(O)n(-c3ccc(F)cc3)n2)c1 [Example 340],1000 to 30000
21,N#Cc1ccc([C@H](CC(=O)O)NC(=O)c2cc(O)n(-c3ccc(F)cc3)n2)cc1 [Example 341],100 to 1000
22,COc1ccccc1[C@H](CC(=O)O)NC(=O)c1cc(O)n(-c2ccc(F)cc2)n1 [Example 342],100 to 1000
23,O=C(O)CC(NC(=O)c1cc(O)n(-c2ccc(F)cc2)n1)c1ccccc1F (centres unmarked) [Example 343],1000 to 30000
24,COc1ccc(Cl)cc1C(CC(=O)O)NC(=O)c1cc(O)n(-c2ccc(F)cc2)n1 (centres unmarked) [Example 344],100 to 1000

row,SMILES,IC50 [nM]
1,COc1ccc(C(CC(=O)O)NC(=O)c2cc(O)n(-c3ccc(F)cc3)n2)c(Cl)c1 (centres unmarked) [Example 345],100 to 1000
2,O=C(O)C[C@H](NC(=O)c1cc(O)n(-c2ccc(F)cc2)n1)c1ccc(F)cc1 [Example 346],1000 to 30000
3,O=C(O)C[C@H](NC(=O)c1cc(O)n(-c2ccc(F)cc2)n1)c1cccc(Cl)c1Cl [Example 347],100 to 1000
4,COc1cccc([C@H](CC(=O)O)NC(=O)c2cc(O)n(-c3ccc(F)cc3)n2)c1 [Example 348],1000 to 30000
5,O=C(O)C[C@H](NC(=O)c1cc(O)n(-c2ccc(F)cc2)n1)c1cccc(F)c1 [Example 349],100 to 1000
6,O=C(O)C[C@H](NC(=O)c1cc(O)n(-c2ccc(F)cc2)n1)c1cccc(Cl)c1 [Example 350],100 to 1000
7,O=C(O)C[C@H](NC(=O)c1cc(O)n(-c2ccc(F)cc2)n1)c1ccc(C(F)(F)F)cc1 [Example 351],1000 to 30000
8,O=C(O)CC(NC(=O)c1cc(O)n(-c2ccc(F)cc2)n1)c1cccc(Cl)c1Cl (centres unmarked) [Example 352],100 to 1000
9,COc1cccc([C@H](CC(=O)O)NC(=O)c2cc(O)n(-c3ccc(F)cc3)n2)c1OC [Example 353],100 to 1000
10,Cc1cccc([C@H](CC(=O)O)NC(=O)c2cc(O)n(-c3ccc(F)cc3)n2)c1 [Example 354],100 to 1000
11,O=C(O)C[C@H](NC(=O)c1cc(O)n(-c2ccc(F)cc2)n1)c1cccc(C(F)(F)F)c1 [Example 355],100 to 1000
12,O=C(O)CC(NC(=O)c1cc(O)n(-c2ccc(F)cc2)n1)c1ccc(-c2cccc(F)c2)cc1 (centres unmarked) [Example 356],100 to 1000
13,O=C(O)CC(NC(=O)c1cc(O)n(-c2ccc(F)cc2)n1)c1ccc(Cl)cc1F (centres unmarked) [Example 357],100 to 1000
14,Cc1cccc(C(CC(=O)O)NC(=O)c2cc(O)n(-c3ccc(F)cc3)n2)c1C (centres unmarked) [Example 358],100 to 1000
15,Cc1ccc(C)c(C(CC(=O)O)NC(=O)c2cc(O)n(-c3ccc(F)cc3)n2)c1 (centres unmarked) [Example 359],1000 to 30000
16,O=C(O)CC(NC(=O)c1cc(O)n(-c2ccc(F)cc2)n1)c1cccc(C(F)(F)F)c1F (centres unmarked) [Example 360],100 to 1000
17,O=C(O)CC(NC(=O)c1cc(O)n(-c2ccc(F)cc2)n1)c1cccc(Cl)c1F (centres unmarked) [Example 361],100 to 1000
18,O=C(O)CC(NC(=O)c1cc(O)n(-c2ccc(F)cc2)n1)c1cccc(C(F)(F)F)c1Cl (centres unmarked) [Example 362],100 to 1000
19,CCc1ccc(C(CC(=O)O)NC(=O)c2cc(O)n(-c3ccc(F)cc3)n2)cc1 (centres unmarked) [Example 363],100 to 1000
20,Cc1cc(F)ccc1C(CC(=O)O)NC(=O)c1cc(O)n(-c2ccc(F)cc2)n1 (centres unmarked) [Example 364],100 to 1000
21,O=C(O)CC(NC(=O)c1cc(O)n(-c2ccc(F)cc2)n1)c1ccc(-c2ccccc2)cc1 (centres unmarked) [Example 365],100 to 1000
22,O=C(O)C[C@H](NC(=O)c1cc(O)n(-c2ccc(F)cc2)n1)c1ccccc1F [Example 366],100 to 1000
23,O=C(O)C[C@H](NC(=O)c1cc(O)n(-c2ccc(F)cc2)n1)c1ccccc1C(F)(F)F [Example 367],100 to 1000

# From patent publication US8664257B2, “Oxygen-substituted 3-heteroaroylamino-propionic acid derivatives and their use as pharmaceuticals” (Sanofi, priority 2010, dated 2014)
